In patent US20020002202A1, “Use of fumarate salt of L-carnitine or its alkanoyl derivatives in ischaemia” (priority 1998, published 2002):
“Also recorded” adds a separate entry of the source.

Columns and labels:
[1] = amount equivalent to the exogenous L-carnitine required; cited from earlier work
[2] = tested on: Perfused Heart; assay: low-pressure or low-flow ischemia model, perfused heart (Langendorff)
Source text: In this example, the low-pressure or low-flow ischemia model was used, which is a model recognised as valid for cardiac ischemia (Bolukoglu, H. et al. Am. J. Physiol. 1996: 270; H817-26).
The treatment schedule is illustrated in FIG. 1, in which the letters A-F denote the heart effluent sampling times for the measurement of metabolites. The hearts are removed from the animals and mounted on a Langerdorff appliance. The perfusion medium replacing the blood was a Krebs-Heinsleit standard bicarbonate buffer containing glucose 12 mM as energy source for cardiac metabolism.
After 30 minute perfusion at a pressure of 100 cm of water, ischemia was induced by reducing the perfusion pressure of the heart to 25 cm of water, thus reducing coronary flow from approximately 2 ml/min to approximately 0.3 ml/min. Reduction of the perfusion pressure gives rise to ischemia, since the heart will pump the fluid in the low-perfusion area rather than via the coronary bloodstream, supplying the flow to the heart.
This control model was compared with hearts perfused with L-carnitine 10 mM or L-carnitine fumarate 10 mM.
Cardiac function was tested in three different ways.
In the first, the NRM ^31P signal was monitored in real time.
This signal provides the best indication of the energy status of the heart.
In the second, the haemodynamics of the heart was measured by means of a pressure transducer mounted to measure the perfusion pressure. The haemodynamic measurements include heart rate, relative dP/dt (measurement of the contraction force of the heart) and the cardiac contraction amplitude. Coronary flow was also measured as an indicator of the heart's ability to provide oxygen and energy for its own metabolism.
In the third type of test, the metabolites and the enzyme LDH released by the heart were analysed in the effluent. The release of LDH indicates damage to cardiac tissue. The release of metabolites by the heart was tested by means of mass spectrometry coupled with gas chromatography.
The procedures of example 1 were substantially repeated, with the addition of a treatment with carnitine alone as a further control.

[3] = heart effluent, GC-MS, low-flow ischemia, 10 mM, vs control hearts

| Compound | gastrointestinal disorders (increased volume and fluidity of faeces and frequency of bowel movements) [1] | ATP phosphate peaks (alpha, beta, gamma) ([2]; 31P NMR, FIG. 2, after 40 minutes of ischemia, Example 2) | reserves of high-energy phosphate (creatine phosphate observed at NMR) ([2]; 31P NMR, after 45 minutes of ischemia, 10 mM, vs control hearts) | succinate released by the heart ([2]; heart effluent, FIG. 3, as compared to lactate, Example 2) | lactate released by the heart [2, 3] | release of malate [2, 3] | release of LDH ([2]; heart effluent, low-flow ischemia, 10 mM in perfusion medium, vs control hearts) | coronary flow ([2]; postischemic, 10 mM, vs control hearts) | postischemic cardiac contraction amplitude ([2]; pressure transducer, 10 mM, vs control hearts) |
| --- | --- | --- | --- | --- | --- | --- | --- | --- | --- |
| C[N+](C)(C)C[C@H](O)CC(=O)[O-].O=C(O)C(O)C(O)C(=O)O [L-carnitine L-tartrate] | caused | – | – | – | – | – | – | – | – |
| C[N+](C)(C)C[C@H](O)CC(=O)[O-] [L-carnitine] | caused | lacking | – | – | – | – | – | – | – |
| L-carnitine acid fumarate [L-carnitine fumarate] | eliminated | – | greater | low amount | less and reduction | more | reduced; also recorded: affords protection against ischemic damage | greater | greater |
